In one data set the target is JAK3 (Homo sapiens, UniProt P52333). Particulars: at clinically relevant concentrations; cited from earlier work.
For data set [1] the following is noted: cited from earlier work.
Data set [2] concerns broad panel of 26 kinases. To be noted: tested at 200 nM; cited from earlier work.
A short description of data set [3]: CPDR001X2105 clinical study in AML/MDS subjects, tolerability. In kind it is in vivo, human. To be noted: 400 mg IV Q2W and 800 mg IV Q4W. Here is the method: (§1) In this study, the selection of the MBG453 dose and regimen is based on the currently available clinical safety, efficacy, PK and PK/PD modeling information from the CMBG453X2101 in advanced solid tumors and CPDR001X2105 in AML and MDS trials for MBG453. For solid tumor subjects, both 800 mg IV Q4W and 400 mg IV every 2 weeks (Q2W) are predicted to give sustained target (TIM-3) occupancy of 90% in tumor in >90% of subjects. […] MBG453 single agent is also being evaluated in AML/MDS subjects in the CPDR001X2105 study with Q4W and Q2W regimens. The recommended dose in AML/MDS has not yet been determined, however it is not expected to be different from solid tumors, based on preliminary PK and safety data.

Data set [4] in a line: MBG453 phase I/II development, impact on hematopoiesis. In kind it is in vivo, human.
A short description of data set [5]: CMBG453X2101 clinical study in advanced solid tumors, safety. In kind it is in vivo, human. Particulars: any dose up to 1200 mg IV Q2W or Q4W. Here is the method: as §1

Entries after “also recorded” stand apart in the source; their conditions may differ.

Chain of JAK3 (P52333 whole entry, species assumed): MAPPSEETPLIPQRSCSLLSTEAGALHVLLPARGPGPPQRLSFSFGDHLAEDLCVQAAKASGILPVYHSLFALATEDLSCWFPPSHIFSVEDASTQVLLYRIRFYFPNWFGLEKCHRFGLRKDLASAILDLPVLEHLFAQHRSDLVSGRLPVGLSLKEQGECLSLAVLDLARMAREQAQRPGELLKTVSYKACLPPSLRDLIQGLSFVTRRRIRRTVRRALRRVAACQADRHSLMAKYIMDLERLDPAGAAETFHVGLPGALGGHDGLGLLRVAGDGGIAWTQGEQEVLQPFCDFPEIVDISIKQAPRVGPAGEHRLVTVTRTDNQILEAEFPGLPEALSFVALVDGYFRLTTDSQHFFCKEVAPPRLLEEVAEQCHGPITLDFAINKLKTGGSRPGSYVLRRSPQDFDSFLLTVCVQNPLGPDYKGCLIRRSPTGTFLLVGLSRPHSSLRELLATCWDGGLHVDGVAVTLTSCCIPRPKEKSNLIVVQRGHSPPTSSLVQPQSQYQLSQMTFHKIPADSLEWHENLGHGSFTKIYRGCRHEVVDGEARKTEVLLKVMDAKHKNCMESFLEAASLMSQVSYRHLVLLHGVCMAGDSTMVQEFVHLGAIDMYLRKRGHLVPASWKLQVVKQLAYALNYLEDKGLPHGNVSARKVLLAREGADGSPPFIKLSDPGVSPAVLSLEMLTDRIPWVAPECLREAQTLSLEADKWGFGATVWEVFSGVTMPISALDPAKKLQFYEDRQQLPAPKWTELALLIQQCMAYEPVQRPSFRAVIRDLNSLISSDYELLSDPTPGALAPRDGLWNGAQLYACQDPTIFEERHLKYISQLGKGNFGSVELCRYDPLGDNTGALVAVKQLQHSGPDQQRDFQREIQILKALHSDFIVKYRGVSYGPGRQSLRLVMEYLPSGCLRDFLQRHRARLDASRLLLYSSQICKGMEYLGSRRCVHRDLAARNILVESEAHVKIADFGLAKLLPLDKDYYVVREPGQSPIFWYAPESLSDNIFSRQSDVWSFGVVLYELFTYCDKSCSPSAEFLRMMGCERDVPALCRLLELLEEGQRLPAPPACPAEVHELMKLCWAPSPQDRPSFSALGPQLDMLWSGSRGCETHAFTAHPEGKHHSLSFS

As for `N#CC[C@H](C1CCCC1)n1cc(-c2ncnc3[nH]ccc23)cn1` [Ruxolitinib, (R)-3-(4-(7H-pyrrolo[2,3-d]pyrimidin-4-yl)-1H-pyrazol-1-yl)-3-cyclopentylpropanenitrile], on JAK3, the “inhibition of JAK3” value is recorded as “does not inhibit”. Besides, in data set [1] (MF patients), the effect on anemia result is “does not improve”; the “effect on splenomegaly (spleen size) and constitutional symptoms of MF” value is on record as “highly effective; also recorded: improvements”. Moreover, the hematoxicity result in data set [1] (human, in vivo) is recorded as “partial transient hematoxicity”. Besides, in data set [2], the “inhibition of a broad panel of 26 kinases” value is < 30%.

In the case of “MBG453: anti-TIM-3 antibody disclosed in US Patent Application Publication No. 2015/0218274”, the tolerability entry in data set [3] is given as “well tolerated”. In data set [4], the impact on hematopoiesis result is reported as “has not been found to have a negative impact on hematopoiesis”. For the same compound, the safety signal entry in data set [5] was “No significant safety signal”.

The values above are taken from US20220306737A1, “USE OF HIGH-AFFINITY, LIGAND-BLOCKING, HUMANIZED ANTI-T-CELL IMMUNOGLOBULIN DOMAIN AND MUCIN DOMAIN-3 (TIM-3) IGG4 ANTIBODY FOR THE TREATMENT OF MYELOFIBROSIS” (Novartis AG, priority 2019, published 2022).
